Where a name gives a salt, the structure may show the parent alone. Read-outs that look alike come from different tables or passages of the source.
Tests used:
[1] = dog, in vivo
[2] = Oral bioavailability in animals; format: in vivo; conditions: crystalline free base form as a suspension in water or oil
[3] = Description: (§1) In general, conversion of salts to the unionized form or vice versa can be explained on the basis of pH-solubility theory. […] At pH<pHmax the equilibrium solid converts to the corresponding salt form. The term "equilibrium solid phase" refers to the undissolved or excess solid in a suspension of the compound in water after sufficient equilibration time. When a salt of a weak base is equilibrated in water in an amount exceeding its solubility limit (i.e., a suspension of the salt in water), the resulting pH of the suspension may fall on either side of the pHmax depending on the strength of the acid among other factors. When the resulting pH is greater than the pHmax, the suspended solid converts to the free base.
[4] = pH 1.8
[5] = Crystal form characterisation (hygroscopicity); format: physicochemical; conditions: crystals obtained from isopropanol
Description: They are now referred to as Type-II crystals. The Type-I crystals appear to be an anhydrous/desolvated crystalline material while the Type-II crystals are a hydrated, hygroscopic crystalline form.

[6] = Aqueous solubility at 24±3° C.; conditions: water
Description: For development of pharmaceutical formulations, particularly oral dosage forms, the active ingredient must have sufficient oral bioavailability.

in vivo = conditions: dog, po
[7] = 40° C./75% RH; for changes in thermal behavior: as little as two weeks
Description: The term physical stability indicates the ability of the salt form to retain its crystal structure (including solvents of crystallization, if any) under storage/stress conditions. Significant changes in the physical nature of the salt form as indicated by thermal methods such as differential scanning calorimetry are undesirable. […] The solid line represents the unstressed material. The dotted line represents the material stressed at 40° C./75% RH for 9 months. […] The solid line represents the unstressed material. The dotted line represents the material stressed at 40° C./75% RH for two weeks. […] The solid line represents the unstressed material. […] The solid line represents the unstressed material. The dotted line represents the material stressed at 40° C./75% RH for two weeks.

[8] = Equilibration of excess salt in water: suspension pH and identity of undissolved solid phase; format: physicochemical; conditions: for pH of the suspension after equilibration / identity of undissolved solid phase after equilibration in water: excess salt in water; for pH of the suspension after equilibration: at least 24 hours (24±3° C. for methane sulfonate and hydrochloride); for identity of undissolved solid phase after equilibration in water: thermal and/or elemental analysis
Description: as §1
The undissolved solids from these suspensions were isolated, air-dried, and characterized.

SMILES | solubility in water [4] | pH of the suspension after equilibration [8] | identity of undissolved solid phase after equilibration in water [8] | changes in thermal behavior [7] | also measured
COC(=O)N[C@H](C(=O)N[C@@H](Cc1ccccc1)[C@@H](O)CN(Cc1ccc(-c2ccccn2)cc1)NC(=O)[C@@H](NC(=O)OC)C(C)(C)C)C(C)(C)C [Compound I, [3S-(3R*, 8'R*, 9'R*, 12R*)]-3,12-bis(1,1-dimethylethyl)-8-hydroxy-4,11-dioxo-9-(phenylmethyl)-6-[[4-(2-pyridinyl)phenylmethyl]-2,5,6,10,13-pentaazatetradecanedioic] acid, dimethyl ester] | less than 1 mg/mL | – | – | – | oral bioavailability [1]: minimal oral bioavailability; oral bioavailability [2]: poor oral bioavailability; pHmax (pH at which the compound exhibits the highest solubility) [3]: approximately 1.2
COC(=O)N[C@H](C(=O)N[C@@H](Cc1ccccc1)[C@@H](O)CN(Cc1ccc(-c2ccccn2)cc1)NC(=O)[C@@H](NC(=O)OC)C(C)(C)C)C(C)(C)C [Type-II crystals] | – | – | – | – | hygroscopicity [5]: hygroscopic
COC(=O)N[C@H](C(=O)N[C@@H](Cc1ccccc1)[C@@H](O)CN(Cc1ccc(-c2ccccn2)cc1)NC(=O)[C@@H](NC(=O)OC)C(C)(C)C)C(C)(C)C [benzenesulfonate] | – | – | – | – | solubility [6]: 1000 to 3000 µg/mL
COC(=O)N[C@H](C(=O)N[C@@H](Cc1ccccc1)[C@@H](O)CN(Cc1ccc(-c2ccccn2)cc1)NC(=O)[C@@H](NC(=O)OC)C(C)(C)C)C(C)(C)C [bisulfate salt] | 4000 to 5000 µg/mL | 1.9±0.2 | hydrated form of 2:1 salt of the free base form and sulfuric acid | – | bioavailability (in vivo): ~20%; changes in thermal behavior (differential scanning calorimetry) ([7]; 9 months, vs unstressed sample (2-8° C. closed container)): no significant changes in the thermal behavior; solid state transformation when suspended in water ([8]; suspension in water): prevents the conversion to the free base
COC(=O)N[C@H](C(=O)N[C@@H](Cc1ccccc1)[C@@H](O)CN(Cc1ccc(-c2ccccn2)cc1)NC(=O)[C@@H](NC(=O)OC)C(C)(C)C)C(C)(C)C [hydrochloride] | – | 2.1±0.1 | identified as the free base | significant changes in their thermal behavior | –
COC(=O)N[C@H](C(=O)N[C@@H](Cc1ccccc1)[C@@H](O)CN(Cc1ccc(-c2ccccn2)cc1)NC(=O)[C@@H](NC(=O)OC)C(C)(C)C)C(C)(C)C [methanesulfonate] | – | 2.1±0.1 | identified as the free base | significant changes in their thermal behavior | –
